Entries after “also recorded” stand apart in the source; their conditions may differ.
What was measured:
Flavobacterium IR1 = assay: Theophylline toxicity assay on growth; type: cell-based; conditions: 24 hours at 25° C.
Description: Because theophylline uptake from IR1 appears to be a prerequisite, a toxicity assay was carried out on the growth of IR with varying theophylline concentrations ([…]) grown for 24 hours at 25° C. […] The arrow indicates the time when theophylline was added to the medium. […] Therefore, 2 mM of theophylline was used for inducing the intron splicing in following experiments.

[1] = system: LacZ gene of E. coli MG1655; assay: SIBR-Cas genome editing (HR and CRISPR-Cas counterselection) of LacZ; type: cell-based
Text: For efficient genome editing in bacteria, HR should precede CRISPR-Cas counterselection. To assess whether tight control over CRISPR-Cas targeting could bolster the efficiency of CRISPR-Cas mediated genome editing by allowing more time for HR to occur, we used SIBR-Cas and targeted the LacZ gene of E. coli MG1655 for knock-out through HR and CRISPR-Cas counterselection using a blue/white screening colony assay. To facilitate HR, we added 500 bp up- and down-stream homology arms to the plasmids expressing the four SIBR-Cas (Int1-4) and WT-FnCas12a variants that target the LacZ gene. After 1 hour recovery, we induced the expression of the SIBR-Cas variants to counterselect the WT from the mutant colonies.
Since disruption of LacZ can also be achieved through non-HR mediated approaches (spontaneous mutations or occasional error-prone DNA repair following DNA cleavage by Cas12a), not all gene deletions can be screened phenotypically. Therefore, we repeated our experiment, but X-gal was omitted from the medium to eliminate the possibility of false-positives. Randomly selected colonies that were obtained were screened by PCR for LacZ deletion showing a 0%, 0%, 29% and 38% editing efficiency for Int1, Int2, Int3 and Int4 SIBR-Cas variants, respectively (FIG. 24C). […] The observed decrease in editing efficiency (compared to the blue/white screening) might be attributed to spontaneous LacZ mutations that escape CRISPR-Cas counterselection. Nevertheless, a high editing efficiency (38%) was observed when SIBR-Cas Int4 was used without the use of recombinases or any other complex systems.

EndA of P. putida = assay: FnCas12a targeting assay with Tagged-T4 td intron variants in P. putida; type: cell-based, Pseudomonas putida; conditions: media with or without theophylline
Description: Plasmids bearing the four T4 td intron-FnCas12a or the intron-less FnCas12a and an EndA T or an NT crRNA were transformed to P. putida and the targeting efficiency was assessed by comparing the CFUs μg^−1 in the presence or absence of the theophylline inducer.
In more detail, electrocompetent P. putida cells were transformed (2.5 kV, 200 Ω, 25 μF) with 200 ng plasmid and recovered in 1 ml LB for 2 hours at 30° C. Then, the culture was serially diluted and drop plated on selective (50 μg mL^−1 kanamycin) LB agar plates in the presence or absence of 2 mM theophylline. The agar plates were incubated at 30° C. for 24 hours and the CFUs were counted.
P. putida was transformed with a series of plasmids (listed in Table 6) and serially diluted and drop plated on selective (kanamycin) LB media with or without 2 mM theophylline. […] However, for P. putida, the effect of induction was more apparent than E. coli as no CFUs could be observed for transformants bearing the T crRNA and plated on selective media with theophylline. […] Collectively, the Tagged-intron constructs work efficiently in P. putida and can be used for genome engineering.

LacZa of E. coli MG1655 = assay: FnCas12a targeting assay with Tagged-T4 td intron variants (CFU drop plating); type: cell-based; conditions: T crRNA, both induced and non-induced selective media
Text: Four different intron variants (as shown previously in FIG. 8), referred to as “Tag1”, “Tag2”, etc. (Tag1: −4P, −5P, −6P; Tag2: −4W, […] −4W, −5W, −6P; Tag4: −4M, −5P, −6P) are inserted directly after the start codon of the GOI (FnCas12a gene). The 5′ exon sequences of the four different tags are indicated: Tag1: TCCtcaGGT (SEQ ID NO: 7); Tag2: TCCtcgGGT (SEQ ID NO: 8); Tag3: TCCttgGGT (SEQ ID NO: 9); Tag4: TCCtctGGT (SEQ ID NO: 10). The 3′ exon sequence is conserved amongst the 4 different tags and indicated as CTA (SEQ ID NO: 12). The amino acids corresponding to the Tag sequences are indicated with capital bold letters above the Tagged-introns. Intron-less (wild-type) FnCas12a was used as a reference for comparison. Efficiency of targeting of the different Tagged-T4 td intron variants was assessed by using either a LacZa targeting (T) or a non-targeting (NT) crRNA and by comparing the amount of colony forming units (CFUs) of transformed E. coli MG1655 per μg of plasmid used (CFUs μg^−1). CFU was determined by the number of colonies observed.
Electrocompetent E. coli MG1655 were transformed (2.5 kV, 200 Ω, 25 μF) with 10 ng μL^−1 of the respective plasmid and recovered for 1 hour in 500 μL LB medium [10 g L^−1 tryptone (Oxoid), 5 g L^−1 yeast extract (BD), 10 g L^−1 NaCl (Acros)] at 37° C. Then, the recovered culture was serially diluted and drop plated on selective (50 μg mL^−1 kanamycin) LB agar plates in the presence or absence of 2 mM theophylline. The agar plates were incubated at 30° C. for 24 hours and the CFUs were counted.
E. coli MG1655 was transformed with a series of plasmids (listed in Table 4) and serially diluted and drop plated on selective (kanamycin) LB media with or without 2 mM theophylline. […] The effect of the CFU reduction was more apparent for the Tag4-intron where colonies could only be observed at the 10° dilution, followed by Tag3-intron (10^−1) then Tag2-intron (10^−2) and finally Tag1-intron ([…]).

Row | Molecule | growth of IR1 (Flavobacterium IR1; 5 and 10 mM of theophylline) | growth of IR1 (Flavobacterium IR1; theophylline concentration of up to 2 mM) | colonies obtained ([1]; LacZ targeting) | unbiased editing efficiency (LacZ deletion by PCR of randomly selected colonies) ([1]; X-gal omitted from the medium) | editing efficiency: percentage of white colonies from total CFUs mL-1 ([1]; blue/white screening, LacZ targeting, induced after 1 hour recovery) | CFUs (EndA of P. putida) | CFUs (LacZa of E. coli MG1655)
1 | Cn1c(=O)c2[nH]cnc2n(C)c1=O [Theophylline, theophylline] | decreased the growth | did not affect significantly the growth | – | – | – | – | –
2 | WT-FnCas12a: Intron-less (wild-type) FnCas12a used as a reference for comparison [reference compound] | – | – | no colonies; also recorded: did not yield any colonies | 0% | 0% | did not have any CFUs | complete elimination of CFUs

— patent publication US20240026383A1 (priority 2020, published 2024)
